The numbers were not newly measured in patent US12458674B2, “M13 phage based gene therapy platform” (Massachusetts Institute of Technology, priority 2021, dated 2025), which cites them from elsewhere.

For the data set the following is noted: in vivo.

Each structure is given as a SMILES string.

`Cn1nnc2c(C(N)=O)ncn2c1=O` [temozolomide]: the “CSF to plasma ratio” value is listed as “about 20%”.
